The structures appear in SMILES notation.

By IC50 is commonly meant the concentration that inhibits the measured activity by half.

In the assay the target is KRasG12C (M1-K169, biotinylated on the N-terminus) (Homo sapiens (Human), UniProt P01116, G12C). Description: Covalent competition assay: scintillation proximity assay (SPA) quantifying covalent modification of KRASG12C. It is filed as binding. Conditions: competition with radiolabeled covalent probe (Compound B/Compound A), 2 hours incubation, 10 nM KRasG12C. Put shortly: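 Test compounds compete with a radiolabeled covalent probe for modification of N-terminally biotinylated KRasG12C(M1-K169):GDP, final 10 nM protein, 25 nM radio-ligand, 475 nM unlabelled ligand, 2 h with agitation in 20 mM Tris-HCl pH 7.5, 150 mM NaCl, 0.1 mM MgCl2, 0.01% Tween-20.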
For the compound `C=CC(=O)N1CC2(CC(n3nc(N4CCC(n5ccnc5)CC4(C)C)c(-c4c(Cl)c(C)cc5[nH]ncc45)c3C)C2)C1` (single isomer, unassigned) [Example 45b, 1-(6-(3-(4-(1H-imidazol-1-yl)-2,2-dimethylpiperidin-1-yl)-4-(5-chloro-6-methyl-1H-indazol-4-yl)-5-methyl-1H-pyrazol-1-yl)-2-azaspiro[3.3]heptan-2-yl)prop-2-en-1-one], the IC50 is 1500 nM.

`C=CC(=O)N1CC2(CC(n3nc(N4CCC(N(CC)C5COC5)CC4(C)C)c(-c4c(Cl)c(C)cc5[nH]ncc45)c3C)C2)C1` (single isomer, unassigned) [Example 48a, 1-(6-(4-(5-chloro-6-methyl-1H-indazol-4-yl)-3-(4-(ethyl(oxetan-3-yl)amino)-2,2-dimethylpiperidin-1-yl)-5-methyl-1H-pyrazol-1-yl)-2-azaspiro[3.3]heptan-2-yl)prop-2-en-1-one]: the IC50 was determined as 296 nM.

As for `C=CC(=O)N1CC2(CC(n3nc(N4CCC(N(CC)C5COC5)CC4(C)C)c(-c4c(Cl)c(C)cc5[nH]ncc45)c3C)C2)C1` (single isomer, unassigned) [Example 48b, 1-(6-(4-(5-chloro-6-methyl-1H-indazol-4-yl)-3-(4-(ethyl(oxetan-3-yl)amino)-2,2-dimethylpiperidin-1-yl)-5-methyl-1H-pyrazol-1-yl)-2-azaspiro[3.3]heptan-2-yl)prop-2-en-1-one], the IC50 stood at 6 nM.

In the case of `C=CC(=O)N1CC2(CC(n3nc(N4CCN(C5COC5)CC45CCC5)c(-c4c(C)c(O)cc(C)c4Cl)c3C)C2)C1` (single isomer, unassigned) [Example 49a, 1-(6-(4-(2-chloro-5-hydroxy-3,6-dimethylphenyl)-5-methyl-3-(8-(oxetan-3-yl)-5,8-diazaspiro[3.5]nonan-5-yl)-1H-pyrazol-1-yl)-2-azaspiro[3.3]heptan-2-yl)prop-2-en-1-one], the IC50 came to 1790 nM.

On to `C=CC(=O)N1CC2(CC(n3nc(N4CCN(C5COC5)CC45CCC5)c(-c4c(C)c(O)cc(C)c4Cl)c3C)C2)C1` (single isomer, unassigned) [Example 49b, 1-(6-(4-(2-chloro-5-hydroxy-3,6-dimethylphenyl)-5-methyl-3-(8-(oxetan-3-yl)-5,8-diazaspiro[3.5]nonan-5-yl)-1H-pyrazol-1-yl)-2-azaspiro[3.3]heptan-2-yl)prop-2-en-1-one], for which the IC50 was greater than 5000 nM.

For the compound `C=CC(=O)N1CC2(CC(n3nc(N4CCC(N(C)C5COC5)CC4(C)C)c(-c4c(Cl)c(Cl)cc5[nH]ncc45)c3C)C2)C1` (single isomer, unassigned) [Example 50a, 1-(6-(4-(5,6-dichloro-1H-indazol-4-yl)-3-(2,2-dimethyl-4-(methyl(oxetan-3-yl)amino)piperidin-1-yl)-5-methyl-1H-pyrazol-1-yl)-2-azaspiro[3.3]heptan-2-yl)prop-2-en-1-one], the IC50 is 273 nM.

On to `C=CC(=O)N1CC2(CC(n3nc(N4CCC(N(C)C5COC5)CC4(C)C)c(-c4c(Cl)c(Cl)cc5[nH]ncc45)c3C)C2)C1` (single isomer, unassigned) [Example 50b, 1-(6-(4-(5,6-dichloro-1H-indazol-4-yl)-3-(2,2-dimethyl-4-(methyl(oxetan-3-yl)amino)piperidin-1-yl)-5-methyl-1H-pyrazol-1-yl)-2-azaspiro[3.3]heptan-2-yl)prop-2-en-1-one], for which the IC50 worked out at 5 nM.

With `C=CC(=O)N1CC2(CC(n3nc(N4CCC(N(C)C5COC5)CC45CCC5)c(-c4c(Cl)c(C)cc5[nH]ncc45)c3C)C2)C1` (single isomer, unassigned) [Example 51a, 1-(6-(4-(5-chloro-6-methyl-1H-indazol-4-yl)-5-methyl-3-(8-(methyl(oxetan-3-yl)amino)-5-azaspiro[3.5]nonan-5-yl)-1H-pyrazol-1-yl)-2-azaspiro[3.3]heptan-2-yl)prop-2-en-1-one], the IC50 worked out at 10 nM.

Regarding `C=CC(=O)N1CC2(CC(n3nc(N4CCC(N(C)C5COC5)CC45CCC5)c(-c4c(Cl)c(C)cc5[nH]ncc45)c3C)C2)C1` (single isomer, unassigned) [Example 51b, 1-(6-(4-(5-chloro-6-methyl-1H-indazol-4-yl)-5-methyl-3-(8-(methyl(oxetan-3-yl)amino)-5-azaspiro[3.5]nonan-5-yl)-1H-pyrazol-1-yl)-2-azaspiro[3.3]heptan-2-yl)prop-2-en-1-one], the IC50 was 668 nM.

Regarding `C=CC(=O)N1CC2(CCC(n3nc(N4CCN(C(C)=O)CC4)c(-c4c(Cl)ccc5[nH]ncc45)c3C)C2)C1` (single isomer, unassigned) [Example 53a, 1-(6-(3-(4-acetylpiperazin-1-yl)-4-(5-chloro-1H-indazol-4-yl)-5-methyl-1H-pyrazol-1-yl)-2-azaspiro[3.4]octan-2-yl)prop-2-en-1-one], the IC50 was 4900 nM.

Regarding `C=CC(=O)N1CC2(CCC(n3nc(N4CCN(C(C)=O)CC4)c(-c4c(Cl)ccc5[nH]ncc45)c3C)C2)C1` (single isomer, unassigned) [Example 53b, 1-(6-(3-(4-acetylpiperazin-1-yl)-4-(5-chloro-1H-indazol-4-yl)-5-methyl-1H-pyrazol-1-yl)-2-azaspiro[3.4]octan-2-yl)prop-2-en-1-one], the IC50 is greater than 50000 nM.

Turning to `C=CC(=O)N1CC2(CCC(n3nc(N4CCN(C(C)=O)CC4)c(-c4c(Cl)ccc5[nH]ncc45)c3C)C2)C1` (single isomer, unassigned) [Example 53c, 1-(6-(3-(4-acetylpiperazin-1-yl)-4-(5-chloro-1H-indazol-4-yl)-5-methyl-1H-pyrazol-1-yl)-2-azaspiro[3.4]octan-2-yl)prop-2-en-1-one], the IC50 was greater than 50000 nM.

As to `C=CC(=O)N1CC2(CCC(n3nc(N4CCN(C(C)=O)CC4)c(-c4c(Cl)ccc5[nH]ncc45)c3C)C2)C1` (single isomer, unassigned) [Example 53d, 1-(6-(3-(4-acetylpiperazin-1-yl)-4-(5-chloro-1H-indazol-4-yl)-5-methyl-1H-pyrazol-1-yl)-2-azaspiro[3.4]octan-2-yl)prop-2-en-1-one], the IC50 came to 9030 nM.

Take `C=CC(=O)N1CC2(CC(n3nc(N4CCN(C5COC5)CC45CCC5)c(-c4c(Cl)c(C)cc5[nH]ncc45)c3C)C2)C1` (single isomer, unassigned) [Example 54a, 1-(6-(4-(5-Chloro-6-methyl-1H-indazol-4-yl)-5-methyl-3-(8-(oxetan-3-yl)-5,8-diazaspiro[3.5]nonan-5-yl)-1H-pyrazol-1-yl)-2-azaspiro[3.3]heptan-2-yl)prop-2-en-1-one]: the IC50 turned out to be 17800 nM.

In the case of `C=CC(=O)N1CC2(CC(n3nc(N4CCN(C5COC5)CC45CCC5)c(-c4c(Cl)c(C)cc5[nH]ncc45)c3C)C2)C1` (single isomer, unassigned) [Example 54b, 1-(6-(4-(5-Chloro-6-methyl-1H-indazol-4-yl)-5-methyl-3-(8-(oxetan-3-yl)-5,8-diazaspiro[3.5]nonan-5-yl)-1H-pyrazol-1-yl)-2-azaspiro[3.3]heptan-2-yl)prop-2-en-1-one], the IC50 was determined as 15 nM.

Consider `C=CC(=O)N1CC2(CC(n3nc(N4CCN(C)CC45CCC5)c(-c4c(Cl)c(C)cc5[nH]ncc45)c3C)C2)C1` (single isomer, unassigned) [Example 55a, 1-(6-(4-(5-chloro-6-methyl-1H-indazol-4-yl)-5-methyl-3-(8-methyl-5,8-diazaspiro[3.5]nonan-5-yl)-1H-pyrazol-1-yl)-2-azaspiro[3.3]heptan-2-yl)prop-2-en-1-one], for which the IC50 worked out at 24700 nM.

In the case of `C=CC(=O)N1CC2(CC(n3nc(N4CCN(C)CC45CCC5)c(-c4c(Cl)c(C)cc5[nH]ncc45)c3C)C2)C1` (single isomer, unassigned) [Example 55b, 1-(6-(4-(5-chloro-6-methyl-1H-indazol-4-yl)-5-methyl-3-(8-methyl-5,8-diazaspiro[3.5]nonan-5-yl)-1H-pyrazol-1-yl)-2-azaspiro[3.3]heptan-2-yl)prop-2-en-1-one], the half-inhibitory concentration (IC50) was determined as 34 nM.

On to `C=CC(=O)N1CC2(CC(n3nc(N4[C@@H](C)CN(C(C)=O)C[C@@H]4C)c(-c4c(Cl)c(C)cc5[nH]ncc45)c3C)C2)C1` (single isomer, unassigned) [Example 56a], for which the IC50 was greater than 50000 nM.

With `C=CC(=O)N1CC2(CC(n3nc(N4[C@@H](C)CN(C(C)=O)C[C@@H]4C)c(-c4c(Cl)c(C)cc5[nH]ncc45)c3C)C2)C1` (single isomer, unassigned) [Example 56b], the IC50 is 334 nM.

`C=CC(=O)N1CC2(CC(n3nc(N4C5CCC4CN(C(C)=O)C5)c(-c4c(Cl)c(C)cc5[nH]ncc45)c3C)C2)C1` (single isomer, unassigned) [Example 57a, 1-(6-(3-(3-acetyl-3,8-diazabicyclo[3.2.1]octan-8-yl)-4-(5-chloro-6-methyl-1H-indazol-4-yl)-5-methyl-1H-pyrazol-1-yl)-2-azaspiro[3.3]heptan-2-yl)prop-2-en-1-one]: the IC50 came to 34700 nM.

With `C=CC(=O)N1CC2(CC(n3nc(N4C5CCC4CN(C(C)=O)C5)c(-c4c(Cl)c(C)cc5[nH]ncc45)c3C)C2)C1` (single isomer, unassigned) [Example 57b, 1-(6-(3-(3-acetyl-3,8-diazabicyclo[3.2.1]octan-8-yl)-4-(5-chloro-6-methyl-1H-indazol-4-yl)-5-methyl-1H-pyrazol-1-yl)-2-azaspiro[3.3]heptan-2-yl)prop-2-en-1-one], the IC50 came out at 216 nM.

As to `C=CC(=O)N1CC2(CC(n3nc(N4CCC(N(CC)C5COC5)CC4(C)C)c(-c4c(Cl)c(Cl)cc5[nH]ncc45)c3C)C2)C1` (single isomer, unassigned) [Example 61a, 1-(6-(4-(5,6-dichloro-1H-indazol-4-yl)-3-(4-(ethyl(oxetan-3-yl)amino)-2,2-dimethylpiperidin-1-yl)-5-methyl-1H-pyrazol-1-yl)-2-azaspiro[3.3]heptan-2-yl)prop-2-en-1-one], the IC50 turned out to be 881 nM.

These data come from patent US20240317721A1, “PYRAZOLYL DERIVATIVES AS INHIBITORS OF THE KRAS MUTANT PROTEIN” (NOVARTIS AG, priority 2021, published 2024).
